We go through 88 compounds from a melting point compilation (Tetko et al.; mined from patent text by program, amines drawn as free bases though some values may be those of a salt).

Regarding `COc1cccc(-c2c(Cl)c(CCl)nc3sc4c(c23)CCN(Cc2ccccc2)C4)c1OC`, the melting point lay in the range of 137 to 138 °C.
In the case of `CNC(=O)C1CC(C)CCC1C(C)C` (stereo not drawn), the melting point was 95 to 97 °C.
With `O=C(O)CCCN1C(=O)c2cccc([N+](=O)[O-])c2C1=O`, the melting point lay within 144 to 146 °C.
The result for `CCCC(=O)Nc1ccc(Sc2ccccc2)cc1NC(=NC(=O)OC)NC(=O)OC` reads 164 to 166 °C.
In the case of `COCCNc1cc(Cl)nc(-c2ccc(C)cc2)n1`, the melting point lay in the range of 141 to 144 °C.
In the case of `NC1=NC(c2ccc(OC(F)F)cc2)(c2cccc(-c3cccnc3F)c2)C2=NCC3(CC3)CN12` (stereo not drawn) it was 98 to 108 °C.
In turn, `CCOc1cc(C=CC(C)=O)ccc1OC` returned a melting point of 95 to 96 °C.
The result for `Cc1nc(-c2nc(-c3ccc(Cl)cc3)c(CCCCCO)o2)c[nH]1` reads 94 to 95 °C; that for `N#Cc1ccc(-c2cc(-c3ccc(C#N)cc3Cl)no2)cc1`, 247 to 248 °C.
The result for `O=C(NC1CCCCC1)OC1CCN(C(=O)Oc2ccc(Oc3ccccc3)cc2)CC1` reads 137 to 139 °C.
The result for `COC(=O)C1CCC2C3CCC4CC(OS(=O)(=O)c5ccc(C)cc5)CCC4(C)C3C(=O)CC12C` (stereo not drawn) reads 158 to 160 °C; that for `CCN(CC)C(=O)n1ccc(Sc2cccc(Cl)c2C)n1`, 87 to 88 °C; that for `O=C(c1ccc(F)cc1)N1CCN(S(=O)(=O)c2ccc(Nc3ccnc4cc(C(F)(F)F)ccc34)cc2)CC1`, 172 to 174 °C.
For the compound `CN1Cc2c(-c3noc(C4CC4)n3)ncn2-c2ccccc2C1=O`, the melting point lay within 179 to 181 °C.
The compound `COc1ccc(C(=O)Nc2ccccc2)cc1` registered a melting point of 156 to 158 °C.
As to `O=C(NC1CCC1)c1ccc(-c2ccc3nnn(Cc4ccc5ncccc5c4)c3n2)cc1F`, the melting point is 171 to 174 °C.
In the case of `COc1ccc(NC=O)c(C=O)c1` it was 125 to 127 °C; in that of `c1ccc(CN(c2ccccc2)c2ccc(N(Cc3ccccc3)c3ccccc3)cc2)cc1`, 149 to 151 °C.
With `CCOC(=O)C(Cl)C(=O)Nc1ccc(Cl)cc1` (stereo not drawn), the melting point is 104 to 105 °C.
Consider `CN(C(=O)c1ccc(-n2cccn2)cc1)C1CCN(C(=O)OC(C)(C)C)CC1`, for which the melting point is 164 to 166 °C.
In the case of `CN(C)CCCN1C(=O)c2cscc2N(C)c2ccccc21` it was 52 to 56 °C; in that of `COC(=O)C[C@H](O)CC(=O)C=Cc1c(-c2ccc(F)cc2)c(-c2ccccc2)c(C(=O)Nc2cccc(S(N)(=O)=O)c2)n1C(C)C`, 89 to 91 °C; in that of `O=C(Nc1ccccc1S(=O)(=O)NCCCn1ccnc1)c1cccc(C(F)(F)F)c1`, 145 to 147 °C.
As to `CCCCCCCCCCCCCCCCOc1ccc(C(C)=O)o1`, the melting point was 72 to 76 °C.
The result for `CCOC(=O)c1c(NC(C)=O)sc2c1C=CC=CC=CC=CC=C2` reads 54 to 74 °C; that for `CN(C)C(=O)c1cc2c(nc(C3CC3)n2C)c2c1CCC(c1ccccc1)O2` (stereo not drawn), 176 to 179 °C.
`CCC(CC)(CC(=O)Nc1cccc(SCc2ccc3cccc(F)c3n2)c1)C(=O)O` showed a melting point of 80 to 83 °C.
In the case of `CCOC(=O)C(=O)Nc1ccc2nonc2c1NC(=O)C(=O)OCC` it was 175 °C; in that of `Cc1ccc(C(=O)C2=C(N)CCCC2)cc1`, 130 to 131 °C; in that of `COC(=O)c1cc(OC)c(OC)cc1OC`, 91.5 to 92.5 °C.
In the case of `COC(=O)c1[nH]nc2c1CCc1cc(OC)c(Br)cc1-2`, the melting point was 240 to 241 °C.
Turning to `OC1(c2cccc(OCc3ccccc3)c2)CCOCC1`, the melting point was 84 to 86 °C.
In the case of `Cc1nc(Cl)c(C(=O)O)cc1Cl` it was 123 to 138 °C.
The result for `Cc1ccc(C(=O)OCn2c(Br)c(Br)c(S(=O)(=O)C(F)(F)F)c2-c2ccc(Cl)cc2)cc1` reads 74 to 78 °C; that for `N#CC1CCN(c2ccc3c(NC(=O)CC4CCCCC4)c(Cl)ccc3n2)CC1`, 235 to 237 °C.
In the case of `C[C@]1(COc2ccc(N3CCC(Oc4ccc(OC(F)(F)F)cc4)CC3)nc2)Cn2cc([N+](=O)[O-])nc2O1` it was 186 to 187 °C.
`CCn1c(CO)nc(C(C)C)c1Sc1cc(F)cc(F)c1` gave a melting point of 102 to 104 °C.
The result for `Cc1ccc2c3c(ccc2n1)OCC(CN1C2CCC1CC(O)(c1ccc4ccccc4c1)C2)O3` (stereo not drawn) reads 218 °C; that for `CCCCCCCCCCCCCCCCCCNC(=O)CC[Si](OCC)(OCC)OCC`, 50 to 52 °C; that for `CCOC(=O)c1[nH]cc(-c2ccc(F)cc2)c1C(C)C`, 94 to 97 °C.
In turn, `C/C=C\NC(=O)c1c(Cl)cccc1[Si](C)(C)C` showed a melting point of 101 to 102 °C.
In the case of `O=C(NCC1CCCCC1)c1c(Cl)ccc2nc(N3CCC[C@@H]3C(=O)O)ccc12` it was 157 to 160 °C; in that of `O=C(O)C1C=CCN2C(=O)C(CCS)(Cc3ccccc3)C(=O)N12` (stereo not drawn), 151 to 154 °C.
Compound `CCCCCNC(=S)CC(=O)O` showed a melting point of 72 to 76 °C.
In the case of `CCN1C(=O)C(C(=O)Nc2cccc(C(=O)Nc3ccc(Br)cc3)c2)c2cc(C(=O)c3ccccc3)ccc21` (stereo not drawn) it was 139 to 142 °C; in that of `COC(=O)c1cc(-c2ccc(C)c(F)c2)n[nH]c1=O`, 206 to 207 °C.
The result for `CCCOc1ccc(N)cc1C1=NC(=O)C2=NN=NC2=N1` reads 225 to 227 °C.
In the case of `CCCCCCc1cnc(-c2ccc(CCCCC)c(F)c2)nc1` it was 30 °C; in that of `CCN1CC(OCC2CCC2)(C(F)(F)F)c2cc(F)ccc2NC1=O` (stereo not drawn), 137 to 138 °C; in that of `CC1(C)Cc2cc([N+](=O)[O-])cc(O)c2O1`, 96 to 97 °C.
As to `O=C(O)C=CC(=O)c1ccc(Oc2ccc(Cl)c(Cl)c2)cc1`, the melting point fell in the range of 155 to 156 °C.
In the case of `COC(=O)C(C)Oc1cccc2c1c(C(=O)C(N)=O)c(C)n2Cc1ccccc1` (stereo not drawn) it was 175 °C; in that of `C=CCN1CCn2c1nc1ccc(Cl)cc1c2=O`, 91 to 93 °C; in that of `COc1cc2c(cc1OC)C(C=Cc1ccccc1)=NN(C(C)=O)C(C)C2` (stereo not drawn), 118 to 120 °C.
In the case of `OCCc1c(Br)cc(Br)c2cccnc12` it was 128 to 131 °C; in that of `COc1cc(Nc2c(C#N)cnc3cc(Sc4ccccc4)c(OC)cc23)c(Cl)cc1Cl`, 220 to 222 °C; in that of `CC1(C)C(=CC=C2C(=O)c3ccccc3C2=C(C#N)C#N)N2CCCc3cccc1c32`, 291 °C.
The result for `CC(=O)Nc1ccc(S(=O)(=O)Nc2ccn(C3CCCCC3)c(=O)n2)cc1` reads 219 to 234 °C; that for `CCC(=O)NCCC1CCc2ccc3nn(C)cc3c21` (stereo not drawn), 105 to 107 °C; that for `CSC(=O)c1ccccc1NC1CCN(C)CC1`, 64 to 65 °C.
As to `OC(CCCc1ccc(Cl)cc1)(Cc1ccc(Cl)cc1)c1ccc(OCc2ccc3ccccc3n2)cc1` (stereo not drawn), the melting point lay within 123 to 124 °C.
Turning to `CCOC(=O)C1=C(C)NC(C#N)=C(C(=O)OCC)C1c1ccccc1[N+](=O)[O-]` (stereo not drawn), the melting point fell in the range of 126 to 128 °C.
The compound `CCCC(=O)Nc1c(C)c2c(c(C(C)c3ccc(C(C)C)cc3)c1C)OCC2` (stereo not drawn) displayed a melting point of 152 to 153 °C.
In the case of `CCN(CC)Cc1ccc2nc(-c3ccccc3)cc(OCc3ccccc3)c2c1` it was 108 to 109 °C; in that of `CCCCCCCCCCCCNC(=O)CS(=O)(=O)Nc1c(C(C)C)cccc1C(C)C`, 83 to 85 °C; in that of `NCC1CCN(c2c(F)cc3c(=O)c(C(=O)O)cn(C4CC4)c3c2F)C1` (stereo not drawn), 232 to 235 °C.
`COc1ccc([N+](=O)[O-])cc1CC#N`: the melting point was 100 °C.
Turning to `O=Cc1ccc2ccn(C(c3ccccc3)c3cccc(C=Cc4ccc5ccccc5n4)c3)c2c1` (stereo not drawn), the melting point was 75 °C.
In the case of `S=C(NCCCc1ccccc1)Nc1nccs1` it was 126 to 128 °C; in that of `CCc1cccc(CC)c1NC(=O)Nc1oc2ccc(Cl)cc2c1-c1ccccc1C`, 233 to 234 °C; in that of `O=C(Nc1cc(Cc2n[nH]c(=O)c3ccccc23)ccc1N1CCOCC1)c1cccc(CCl)c1`, 117 to 122 °C.
In the case of `COC(=O)C1=C(C)Nc2ccccc2NC1c1ccccc1C(F)(F)F` (stereo not drawn) it was 190 to 192 °C; in that of `CC1(CN2CCCN(Cc3ccc(-c4ccccc4)cc3)CC2)Cn2cc([N+](=O)[O-])nc2O1` (stereo not drawn), 138 to 142 °C.
In the case of `COc1cccc(-c2cn(C)cc(-c3cccc(C(F)(F)F)c3)c2=O)c1` it was 113 to 115 °C; in that of `CC(c1oc2ccccc2c(=O)c1-c1ccccc1)n1nc(C#CC(C)(C)O)c2c(N)ncnc21` (stereo not drawn), 109 to 113 °C.
`Cc1ccc(S(=O)(=O)Nc2ccc(-c3ccccc3)cn2)cc1` showed a melting point of 187 to 189 °C.
In the case of `N#CCCNC(=S)C1=CC(CF)(CF)Oc2ccc(C(F)(F)F)cc21` it was 105 to 106 °C; in that of `CN1CCC(O)(c2ccccc2[N+](=O)[O-])CC1`, 166 to 167 °C.
The result for `COC(=O)C(C)(C)OCc1cc2cc(C(F)(F)F)ccc2n1S(=O)(=O)c1ccc2c(c1)OCCO2` reads 128 to 130 °C.
The result for `CC(=Cc1ccccc1)c1ccc2c(c1)C(C)(C)CCN2C` reads 69 to 71 °C.
Turning to `CC(=O)Nc1nc(CCc2ccc(NC3=NCCS3)cc2)cs1`, the melting point lay within 218 to 220 °C.
With `O=C(O)c1cccc(OCc2cc(Cl)cc(Cl)c2)c1OCc1cc(Cl)cc(Cl)c1`, the melting point lay in the range of 150 to 151 °C.
The result for `O=S(=O)(Nc1cccc(CCOCc2ccc(-c3ccc(C(F)(F)F)cc3)cc2)c1)C(F)(F)F` reads 98 to 100 °C; that for `CCOC(=O)CNC(=O)Nc1ccc(C(=N)NC(=O)OC(C)(C)C)cc1`, 107 to 110 °C; that for `Cc1cc2c(cc1S(=O)(=O)c1cc(Cl)ccc1Cl)OC(C(=O)O)O2` (stereo not drawn), 155 to 157 °C.
Take `NC(=O)c1cc(Oc2cccc(CO)c2)ccn1`: the melting point came to 113 °C.
`Clc1cn2cc(Cl)c(Cl)c(Cl)c2n1` displayed a melting point of 232 to 233 °C.
The compound `C=CCN1CCc2c(sc(N)c2C(=O)c2ccc(Br)cc2)C1` showed a melting point of 116 to 118 °C.
